Data published in patent publication US9120812B2, “Pyrimidooxazocine derivatives as mTOR-inhibitors” (SANOFI, priority 2012, dated 2015).

How the values were obtained:
[1] = biological target: mTOR (human recombinant aa mTOR 1360-2549) (Homo sapiens (Human), UniProt P42345); experiment: mTOR enzymatic test by TR-FRET (phosphorylation of GFP-4EBP1); format: biochemical
In short: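 After a 30 min room-temperature kinase reaction, EDTA (10 mM final) and Tb-labelled phospho-Thr46 antibody (2 nM final) were added and incubated 60 min. Energy transfer from Tb to phosphorylated GFP-4EBP1 was read at 340 nm excitation, emissions 490/520 nm. Values derive from the 520/490 fluorescence ratio.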

PI3Kα (p110α/p85α) = PI3Kα (p110α/p85α) (Homo sapiens (Human), UniProt P42336); experiment: PI3Kα enzymatic test by measuring the consumption of ATP; format: biochemical
In short: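 ATP consumption read out by KinaseGlo luminescence after a 90 min reaction of 1.7 μg/ml PI3Kα (p110α/p85α) with 2 μM ATP and 50 μM PIP2, buffered at pH 7.5 (Tris, 10 mM MgCl2, 1 mM EGTA, 0.03% Chaps, 1 mM DTT). Threefold dilution series over ≥10 000-fold range yield IC50.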

U87MG tumour cells = experiment: Test of in vitro proliferation of U87MG tumour cells; format: cell-based; details: Homo sapiens, U-87 MG, 72 h, U87MG cells, 72 hours; read-out: U87 Cell Proliferation IC50
Method: Model 4: Test of in vitro Proliferation of U87MG Tumour Cells.
The cell growth is determined with the reagent CellTiter 96 AQueous One Solution Cell Proliferation Assay from Promega (Cat. No. G3581).

Akt-pS473 in U87MG cells = details: Homo sapiens, U-87 MG, read-out: U87 Akt-pS473 % Inhibition or IC50, nM (IC50), U87MG cells

Chain of mTOR (human recombinant aa mTOR 1360-2549) (P42345 1360-2549): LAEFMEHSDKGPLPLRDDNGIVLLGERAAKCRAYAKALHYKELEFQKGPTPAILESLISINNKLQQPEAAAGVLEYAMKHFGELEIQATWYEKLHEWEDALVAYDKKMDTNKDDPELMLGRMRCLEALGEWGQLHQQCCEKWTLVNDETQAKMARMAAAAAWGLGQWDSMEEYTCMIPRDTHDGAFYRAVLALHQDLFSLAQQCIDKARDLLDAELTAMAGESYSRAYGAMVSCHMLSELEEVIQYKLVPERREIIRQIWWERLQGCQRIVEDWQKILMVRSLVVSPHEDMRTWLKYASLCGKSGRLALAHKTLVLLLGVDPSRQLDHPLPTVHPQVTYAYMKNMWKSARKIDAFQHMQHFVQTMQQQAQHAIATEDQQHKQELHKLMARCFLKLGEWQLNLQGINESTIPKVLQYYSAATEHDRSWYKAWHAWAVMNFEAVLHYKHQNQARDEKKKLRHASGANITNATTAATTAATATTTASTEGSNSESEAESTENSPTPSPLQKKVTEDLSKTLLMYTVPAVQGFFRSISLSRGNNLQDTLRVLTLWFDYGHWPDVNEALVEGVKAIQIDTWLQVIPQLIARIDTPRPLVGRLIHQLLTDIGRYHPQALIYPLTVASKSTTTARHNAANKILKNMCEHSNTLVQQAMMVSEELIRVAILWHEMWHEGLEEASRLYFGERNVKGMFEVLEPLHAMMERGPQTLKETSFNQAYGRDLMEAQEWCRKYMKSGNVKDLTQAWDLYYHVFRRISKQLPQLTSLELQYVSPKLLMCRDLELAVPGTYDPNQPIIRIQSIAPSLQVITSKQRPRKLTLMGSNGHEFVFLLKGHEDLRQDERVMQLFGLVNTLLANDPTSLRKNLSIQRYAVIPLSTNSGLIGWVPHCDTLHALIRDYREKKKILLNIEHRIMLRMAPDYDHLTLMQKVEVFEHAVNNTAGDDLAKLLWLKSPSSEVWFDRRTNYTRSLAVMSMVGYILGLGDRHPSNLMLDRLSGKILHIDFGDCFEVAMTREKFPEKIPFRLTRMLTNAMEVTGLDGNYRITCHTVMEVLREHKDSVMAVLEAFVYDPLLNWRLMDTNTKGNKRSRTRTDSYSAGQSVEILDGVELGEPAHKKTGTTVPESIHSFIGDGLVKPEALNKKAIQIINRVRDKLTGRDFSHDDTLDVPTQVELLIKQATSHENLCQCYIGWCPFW
Chain of PI3Kα (p110α/p85α) (P42336 whole entry): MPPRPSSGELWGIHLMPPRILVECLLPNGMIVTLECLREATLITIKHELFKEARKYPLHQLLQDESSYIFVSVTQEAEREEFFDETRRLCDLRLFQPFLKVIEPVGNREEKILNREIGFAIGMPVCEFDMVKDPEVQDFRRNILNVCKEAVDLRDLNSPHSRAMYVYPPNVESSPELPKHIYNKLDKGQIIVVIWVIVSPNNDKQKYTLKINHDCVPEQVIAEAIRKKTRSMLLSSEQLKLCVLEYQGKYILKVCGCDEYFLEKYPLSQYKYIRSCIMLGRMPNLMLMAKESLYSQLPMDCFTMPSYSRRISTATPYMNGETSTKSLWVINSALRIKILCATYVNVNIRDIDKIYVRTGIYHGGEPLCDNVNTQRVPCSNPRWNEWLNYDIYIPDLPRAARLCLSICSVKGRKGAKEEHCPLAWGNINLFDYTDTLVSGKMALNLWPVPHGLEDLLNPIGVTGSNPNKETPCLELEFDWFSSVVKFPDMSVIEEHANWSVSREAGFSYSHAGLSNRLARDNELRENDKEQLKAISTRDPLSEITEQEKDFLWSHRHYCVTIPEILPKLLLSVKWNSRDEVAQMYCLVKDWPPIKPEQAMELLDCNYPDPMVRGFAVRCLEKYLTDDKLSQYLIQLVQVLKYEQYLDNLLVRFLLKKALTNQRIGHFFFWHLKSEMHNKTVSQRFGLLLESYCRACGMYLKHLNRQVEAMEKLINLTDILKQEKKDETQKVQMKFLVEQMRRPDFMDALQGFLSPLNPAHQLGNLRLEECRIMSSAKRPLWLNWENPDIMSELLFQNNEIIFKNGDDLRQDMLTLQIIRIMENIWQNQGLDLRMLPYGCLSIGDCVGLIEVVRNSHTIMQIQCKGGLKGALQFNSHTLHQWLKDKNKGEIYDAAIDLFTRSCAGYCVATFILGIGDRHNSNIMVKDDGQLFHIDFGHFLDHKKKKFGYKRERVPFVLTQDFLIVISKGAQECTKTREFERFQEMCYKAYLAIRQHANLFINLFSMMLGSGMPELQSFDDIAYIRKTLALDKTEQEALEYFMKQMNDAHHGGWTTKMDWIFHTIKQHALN
Chain of PI3Kα (p110α/p85α) (P27986 whole entry partner): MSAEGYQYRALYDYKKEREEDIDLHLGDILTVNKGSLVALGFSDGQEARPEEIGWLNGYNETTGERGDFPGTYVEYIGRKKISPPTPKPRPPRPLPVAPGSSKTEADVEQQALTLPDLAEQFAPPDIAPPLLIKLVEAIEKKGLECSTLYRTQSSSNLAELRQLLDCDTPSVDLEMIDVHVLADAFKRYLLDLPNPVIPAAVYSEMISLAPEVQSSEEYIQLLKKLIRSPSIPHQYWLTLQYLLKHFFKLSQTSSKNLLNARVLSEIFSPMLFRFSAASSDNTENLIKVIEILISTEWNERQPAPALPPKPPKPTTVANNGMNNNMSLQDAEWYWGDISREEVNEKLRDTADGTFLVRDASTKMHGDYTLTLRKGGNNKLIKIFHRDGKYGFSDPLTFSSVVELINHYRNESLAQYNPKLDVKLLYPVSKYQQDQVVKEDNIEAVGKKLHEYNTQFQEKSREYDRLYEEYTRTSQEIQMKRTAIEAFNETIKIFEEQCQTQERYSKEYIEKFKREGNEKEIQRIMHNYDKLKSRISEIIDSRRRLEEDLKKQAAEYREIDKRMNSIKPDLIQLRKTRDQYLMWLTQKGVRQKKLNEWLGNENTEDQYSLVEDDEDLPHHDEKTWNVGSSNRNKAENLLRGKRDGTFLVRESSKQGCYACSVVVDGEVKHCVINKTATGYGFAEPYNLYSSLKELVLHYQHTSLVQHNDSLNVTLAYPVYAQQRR

Structure (SMILES)	IC50 [1] [nM]	PI3Ka IC50 (PI3Kα (p110α/p85α)) [nM]	IC50 (U87MG tumour cells) [nM]	IC50 (Akt-pS473 in U87MG cells) [nM]
CCN1CC(C)(C)Oc2nc(N3CCOC[C@@H]3C)nc(-c3ccc(NC(=O)Nc4cccc(C)n4)cc3)c2C1=O [Example 36, 1-{4-[6-Ethyl-8,8-dimethyl-2-((S)-3-methylmorpholin-4-yl)-5-oxo-5,6,7,8-tetrahydro-9-oxa-1,3,6-triazabenzocyclohepten-4-yl]phenyl}-3-(6-methylpyridin-2-yl)urea]	55	4400	686	129
CC[C@H]1COCCN1c1nc2c(c(-c3ccc(NC(=O)Nc4ccc(C)nc4)c(F)c3)n1)C(=O)N(CC)CC(C)(C)O2 [Example 37, 1-{4-[6-Ethyl-2-((S)-3-ethylmorpholin-4-yl)-8,8-dimethyl-5-oxo-5,6,7,8-tetrahydro-9-oxa-1,3,6-triazabenzocyclohepten-4-yl]-2-fluorophenyl}-3-(6-methylpyridin-3-yl)urea]	122	8630	869	54
CNC(=O)Nc1ccc(-c2nc(N3CC4CCC(C3)O4)nc3c2C(=O)N(C)CC(C)(C)O3)cc1 [Example 38, 1-Methyl-3-{4-[6,8,8-trimethyl-2-(8-oxa-3-azabicyclo[3.2.1]oct-3-yl)-5-oxo-5,6,7,8-tetrahydro-9-oxa-1,3,6-triazabenzocyclohepten-4-yl]phenyl}urea]	22	3450	218	23
CN1CC(C)(C)Oc2nc(N3CC4CCC(C3)O4)nc(-c3ccc(NC(=O)Nc4ccccn4)cc3)c2C1=O [Example 39, 1-Pyridin-2-yl-3-{4-[6,8,8-trimethyl-2-(8-oxa-3-azabicyclo[3.2.1]oct-3-yl)-5-oxo-5,6,7,8-tetrahydro-9-oxa-1,3,6-triazabenzocyclohepten-4-yl]phenyl}urea]	26	5870	207	34
CCN1CC(C)(C)Oc2nc(N3CC4CCC(C3)O4)nc(-c3ccc(NC(=O)Nc4ccc(OCCOC)cn4)cc3)c2C1=O [Example 40, 1-{4-[6-Ethyl-8,8-dimethyl-2-(8-oxa-3-azabicyclo[3.2.1]oct-3-yl)-5-oxo-5,6,7,8-tetrahydro-9-oxa-1,3,6-triazabenzocyclohepten-4-yl]phenyl}-3-[5-(2-methoxyethoxy)pyridin-2-yl]urea]	56	>10000	274	59
CN1CC(C)(C)Oc2nc(N3C4CCC3COC4)nc(-c3ccc(NC(=O)Nc4ccccn4)cc3)c2C1=O [Example 41, 1-Pyridin-2-yl-3-{4-[6,8,8-trimethyl-2-(3-oxa-8-azabicyclo[3.2.1]oct-8-yl)-5-oxo-5,6,7,8-tetrahydro-9-oxa-1,3,6-triazabenzocyclohepten-4-yl]phenyl}urea]	35	>10000	122	31
Cc1ccc(NC(=O)Nc2ccc(-c3nc(N4CC5CCC(C4)O5)nc4c3C(=O)N(C)CC(C)(C)O4)cc2)nc1 [Example 42, 1-(5-Methylpyridin-2-yl)-3-{4-[6,8,8-trimethyl-2-(8-oxa-3-azabicyclo[3.2.1]oct-3-yl)-5-oxo-5,6,7,8-tetrahydro-9-oxa-1,3,6-triazabenzocyclohepten-4-yl]phenyl}urea]	43	>10000	350	52
CNC(=O)Nc1ccc(-c2nc(N3C4CCC3COC4)nc3c2C(=O)N(C)CC(C)(C)O3)cc1 [Example 43, 1-Methyl-3-{4-[6,8,8-trimethyl-2-(3-oxa-8-azabicyclo[3.2.1]oct-8-yl)-5-oxo-5,6,7,8-tetrahydro-9-oxa-1,3,6-triazabenzocyclohepten-4-yl]phenyl}urea]	27	4730	82	20
CCN1CC(C)(C)Oc2nc(N3CC4CCC(C3)O4)nc(-c3ccc(NC(=O)Nc4ccc(OC)cn4)cc3)c2C1=O [Example 44, 1-{4-[6-Ethyl-8,8-dimethyl-2-(8-oxa-3-azabicyclo[3.2.1]oct-3-yl)-5-oxo-5,6,7,8-tetrahydro-9-oxa-1,3,6-triazabenzocyclohepten-4-yl]phenyl}-3-(5-methoxypyridin-2-yl)urea]	34	>10000	220	40
CNC(=O)Nc1ccc(-c2nc(N3CC4CCC(C3)O4)nc3c2C(=O)N(C)CC(C)(C)O3)cc1F [Example 45, 1-{2-Fluoro-4-[6,8,8-trimethyl-2-(8-oxa-3-azabicyclo[3.2.1]oct-3-yl)-5-oxo-5,6,7,8-tetrahydro-9-oxa-1,3,6-triazabenzocyclohepten-4-yl]phenyl}-3-methylurea]	24	4000	85	32
CNC(=O)Nc1ccc(-c2nc(N3C4CCC3COC4)nc3c2C(=O)N(C)CC(C)(C)O3)cc1F [Example 46, 1-{2-Fluoro-4-[6,8,8-trimethyl-2-(3-oxa-8-azabicyclo[3.2.1]oct-8-yl)-5-oxo-5,6,7,8-tetrahydro-9-oxa-1,3,6-triazabenzocyclohepten-4-yl]phenyl}-3-methylurea]	26	8880	90	24
CCN1CC(C)(C)Oc2nc(N3CC4CCC(C3)O4)nc(-c3ccc(NC(=O)NC)cc3F)c2C1=O [Example 47, 1-{4-[6-Ethyl-8,8-dimethyl-2-(8-oxa-3-azabicyclo[3.2.1]oct-3-yl)-5-oxo-5,6,7,8-tetrahydro-9-oxa-1,3,6-triazabenzocyclohepten-4-yl]-3-fluorophenyl}-3-methylurea]	34	>10000	564	151
Cc1ccc(NC(=O)Nc2ccc(-c3nc(N4C5CCC4COC5)nc4c3C(=O)N(C)CC(C)(C)O4)cc2)nc1 [Example 48, 1-(5-Methylpyridin-2-yl)-3-{4-[6,8,8-trimethyl-2-(3-oxa-8-azabicyclo[3.2.1]oct-8-yl)-5-oxo-5,6,7,8-tetrahydro-9-oxa-1,3,6-triazabenzocyclohepten-4-yl]phenyl}urea]	47	>10000	185	86
COc1ccc(NC(=O)Nc2ccc(-c3nc(N4C5CCC4COC5)nc4c3C(=O)N(C)CC(C)(C)O4)cc2)nc1 [Example 49, 1-(5-Methoxypyridin-2-yl)-3-{4-[6,8,8-trimethyl-2-(3-oxa-8-azabicyclo[3.2.1]oct-8-yl)-5-oxo-5,6,7,8-tetrahydro-9-oxa-1,3,6-triazabenzocyclohepten-4-yl]phenyl}urea]	32	>10000	155	21
CCN1CC(C)(C)Oc2nc(N3C4CCC3COC4)nc(-c3ccc(NC(=O)Nc4cccnc4)c(F)c3)c2C1=O [Example 50, 1-{4-[6-Ethyl-8,8-dimethyl-2-(3-oxa-8-azabicyclo[3.2.1]oct-8-yl)-5-oxo-5,6,7,8-tetrahydro-9-oxa-1,3,6-triazabenzocyclohepten-4-yl]-2-fluorophenyl}-3-pyridin-3-ylurea]	39	2870	40	7
CCN1CC(C)(C)Oc2nc(N3C4CCC3COC4)nc(-c3ccc(NC(=O)Nc4ccncc4)c(F)c3)c2C1=O [Example 51, 1-{4-[6-Ethyl-8,8-dimethyl-2-(3-oxa-8-azabicyclo[3.2.1]oct-8-yl)-5-oxo-5,6,7,8-tetrahydro-9-oxa-1,3,6-triazabenzocyclohepten-4-yl]-2-fluorophenyl}-3-pyridin-4-ylurea]	20	1900	12	14
CCN1CC(C)(C)Oc2nc(N3CC4CCC(C3)O4)nc(-c3ccc(NC(=O)Nc4ccncc4)c(F)c3)c2C1=O [Example 52, 1-{4-[6-Ethyl-8,8-dimethyl-2-(8-oxa-3-azabicyclo[3.2.1]oct-3-yl)-5-oxo-5,6,7,8-tetrahydro-9-oxa-1,3,6-triazabenzocyclohepten-4-yl]-2-fluorophenyl}-3-pyridin-4-ylurea]	18	1710	29	16
CCN1CC(C)(C)Oc2nc(N3CCOC[C@@H]3C)nc(-c3ccc(NC(=O)O[C@H]4CCC[C@H]4O)cc3)c2C1=O [Example 53, {4-[6-Ethyl-8,8-dimethyl-2-((S)-3-methylmorpholin-4-yl)-5-oxo-5,6,7,8-tetrahydro-9-oxa-1,3,6-triazabenzocyclohepten-4-yl]phenyl}carbamic acid (1S,2R)-2-hydroxycyclopentyl ester]	222	>10000	2160	555
COc1ccc(NC(=O)Nc2ccc(-c3nc(N4CC5CCC(C4)O5)nc4c3C(=O)N(C)CC(C)(C)O4)cc2)nc1 [Example 54, 1-(5-Methoxypyridin-2-yl)-3-{4-[6,8,8-trimethyl-2-(8-oxa-3-azabicyclo[3.2.1]oct-3-yl)-5-oxo-5,6,7,8-tetrahydro-9-oxa-1,3,6-triazabenzocyclohepten-4-yl]phenyl}urea]	32	3000	161	41
